Assay results: patent publication US7507739B2, “6-[(substituted)phenyl]triazolopyrimidines as anticancer agents” (Wyeth, priority 2003, dated 2009)

Tested on: COLO 205 cells
Assay: MTS cytotoxicity test with COLO 205 cells
Type: cell-based, human
Details: Homo sapiens, COLO 205, 72 h, 3 days
Experimental: The assay, which is sold in kit form by Promega (Madison, Wis.; CellTiter 96 AQueous Non-Radioactive Cell Proliferation Assay), is based on the conversion by viable cells, but not by dead cells, of the tetrazolium salt, MTS (3-(4,5-dimethylthiazol-2-yl)-5-(3-carboxymethoxyphenyl)-2-(4-sulphophenyl)-2H-tetrazolium, inner salt), into a water-soluble colored formazan which is detected by spectrophotometry. Compounds are tested at nine concentrations, in order to determine IC50 values. For the test procedure, cells are harvested by trypsinization (or, in the case of non-adherent cells, by simple resuspension), washed, counted and distributed to wells of 96-well flat-bottom microtiter plates at 1000 cells per well in 200 μL of medium. In addition, one row of wells on a separate plate received cells as above (“time 0” plate). All plates are incubated at 37° in humidified 5% CO2 in air for about 24 hr.
On day 2, compounds for test are diluted and added to wells. Compounds are dissolved in DMSO at 10 mg/mL. For each compound, nine serial 2-fold dilutions are prepared in DMSO. Ten μL of each dilution in DMSO is transferred to 100 μL of medium, mixed well, and then 5 μL of this dilution is transferred in quadruplicate to wells containing cells. The final high concentration of each compound is typically 5 μM. Plates are returned to the incubator for three days. At the time of drug addition to the experimental plates, the MTS assay is run on the “time 0” plate. This produced the “time 0 MTS value” which is related to the number of viable cells per well at the time of drug addition.
After three days of culture with test compounds (day 5 overall), the MTS assay is done on all wells of the experimental plates. The absorbance values of the quadruplicate sample wells are averaged and divided by the average of the “time 0” values. The average of control wells without drug, divided by the average “time 0” value, gave the maximal relative increase in MTS color yield due to cell growth during the final three days of culture. The average of control wells with high drug concentration, divided by the “time 0” value, gave the minimal relative color yield for cells that are completely killed. The nine values for each compound are plotted against concentration, and the concentration that produced a relative color yield half way between the maximum and minimum is taken as the IC50 value.
COLO 205 is a human colon carcinoma cell line that is used for comparative testing of the examples of this invention and several reference compounds. This line is sensitive to paclitaxel and vincristine.

SMILES	IC50 [nM]
C[C@H](Nc1c(-c2c(F)cc(OCCO)cc2F)c(Cl)nc2ncnn12)C(F)(F)F [Example 19, 2-[4-(5-Chloro-7-{[(1S)-2,2,2-trifluoro-1-methylethyl]amino}[1,2,4]triazolo[1,5-a]pyrimidin-6-yl)-3,5-difluorophenoxy]ethanol]	422
C[C@H](Nc1c(-c2c(F)cc(OCCCCO)cc2F)c(Cl)nc2ncnn12)C(F)(F)F [Example 21, 4-[4-(5-Chloro-7-{[(1S)-2,2,2-trifluoro-1-methylethyl]amino}[1,2,4]triazolo[1,5-a]pyrimidin-6-yl)-3,5-difluorophenoxy]butan-1-ol]	151
C[C@H](Nc1c(-c2c(F)ccc(OCCN(C)C)c2F)c(Cl)nc2ncnn12)C(F)(F)F [Example 27, 5-Chloro-6-{3-[2-(dimethylamino)ethoxy]-2,6-difluorophenyl}-N-[(1S)-2,2,2-trifluoro-1-methylethyl][1,2,4]triazolo[1,5-a]pyrimidin-7-amine]	1570
C[C@H](Nc1c(-c2c(F)ccc(OCCCN(C)C)c2F)c(Cl)nc2ncnn12)C(F)(F)F [Example 28, 5-Chloro-6-{3-[3-(dimethylamino)propoxy]-2,6-difluorophenyl}-N-[(1S)-2,2,2-trifluoro-1-methylethyl][1,2,4]triazolo[1,5-a]pyrimidin-7-amine]	785
